Structures can show the parent of a compound that is named as a salt.
Columns and labels:
[1] = tested on: NCI-H292 lung cancer cells; experiment: FDA drug screening, complete media vs cholesterol-free media with simvastatin (TABLE 2); format: cell-based, human; conditions: for Cholesterol-free media + simvastatin (0.04 μM) / Complete Media: NCI-H292 cells; for Difference: >0 enhanced anti-cancer activity, about 0 neutral, <0 antagonist
[2] = tested on: NCI-H292 lung cancer cells; experiment: FDA drug screening, complete media vs cholesterol-free media without statin (TABLE 1); format: cell-based, human; conditions: for Difference: about 0 neutral
[3] = FDA library drug in cholesterol-free media with simvastatin 0.04 μM
[4] = FDA library drug in complete media
[5] = complete media vs cholesterol-free media + simvastatin (0.04 μM)
[6] = Complete minus Cholesterol-free, greater than 0 enhanced anti-cancer activity, below 0 antagonist
[7] = NCI-H292 cells, FDA drug library screen, cholesterol-free media without statin
[8] = NCI-H292 cells, FDA drug library screen, complete media
[9] = cholesterol-free media with simvastatin 0.04 μM, cell growth value in FDA drug screen
[10] = complete media, cell growth value in FDA drug screen
[11] = complete media minus cholesterol-free media + simvastatin
[12] = NCI-H292 cells, cholesterol-free media without statin
[13] = complete vs cholesterol-free media, greater than 0 enhanced anti-cancer activity, below 0 antagonists
[14] = FDA drug library screen, cholesterol-free media with simvastatin 0.04 μM
[15] = FDA drug library screen, complete media
[16] = Complete minus Cholesterol-free, greater than 0 enhanced anti-cancer activity, below 0 antagonists
[17] = NCI-H292 cells in cholesterol-free media without statin
[18] = NCI-H292 cells in complete media
[19] = NCI-H292 cells, cholesterol-free media without statin, FDA drug library screen
[20] = NCI-H292 cells, complete media, FDA drug library screen
[21] = complete vs cholesterol-free media, >0 enhanced anti-cancer activity, <0 antagonist
[22] = cholesterol-free media with simvastatin 0.04 μM, FDA drug library screen (TABLE 2)
[23] = complete media, FDA drug library screen (TABLE 2)
[24] = complete media minus cholesterol-free media + simvastatin (0.04 μM)
[25] = Complete minus Cholesterol-free, >0 enhanced anti-cancer activity, <0 antagonist

SMILES: CC(C)(Oc1ccc(C2CC2(Cl)Cl)cc1)C(=O)O (stereo not drawn) [Ciprofibrate]
- Cholesterol-free media + simvastatin (0.04 μM) [1, 3]: 1.569
- Complete Media [1, 4]: 1.161
- Difference [1, 5]: −0.41
- Difference [2, 6]: −0.11
- Cholesterol-free [2, 7]: 1.09
- Complete [2, 8]: 0.9746

SMILES: O=C(O)c1cn(C2CC2)c2cc(N3CCNCC3)c(F)cc2c1=O [Ciprofloxacin]
- Cholesterol-free media + simvastatin (0.04 μM) [1, 9]: 0.9642
- Complete Media [1, 10]: 1.043
- Difference [1, 11]: 0.08
- Cholesterol-free [2, 12]: 1.503
- Complete ([2]; NCI-H292 cells, complete media): 1.066
- Difference [2, 13]: −0.44

SMILES: COc1cc(N)c(Cl)cc1C(=O)NC1CCN(CCCOc2ccc(F)cc2)CC1OC (stereo not drawn) [Cisapride]
- Cholesterol-free media + simvastatin (0.04 μM) [1, 14]: 1.001
- Complete Media [1, 15]: 0.8916
- Difference [1, 5]: −0.11
- Difference [2, 16]: −0.91
- Cholesterol-free [2, 17]: 1.595
- Complete [2, 18]: 0.6865

SMILES: CN(C)CCCC1(c2ccc(F)cc2)OCc2cc(C#N)ccc21 (stereo not drawn) [Citalopram (hydrobromide)]
- Cholesterol-free media + simvastatin (0.04 μM) [1, 3]: 1.457
- Complete Media [1, 4]: 0.8476
- Difference [1, 5]: −0.61
- Cholesterol-free [2, 19]: 0.8091
- Complete [2, 20]: 1.106
- Difference [2, 21]: 0.30

SMILES: C[N+](C)(C)CCOP(=O)([O-])OP(=O)([O-])OC[C@H]1O[C@@H](n2ccc(N)nc2=O)[C@H](O)[C@@H]1O.[Na+] [Citicoline (sodium)]
- Cholesterol-free media + simvastatin (0.04 μM) [1, 22]: 1.337
- Complete Media [1, 23]: 1.292
- Difference [1, 24]: −0.04
- Cholesterol-free [2, 12]: 1.151
- Complete ([2]; NCI-H292 cells, complete media): 0.8125
- Difference [2, 13]: −0.34

SMILES: C[N+](C)(C)CCOP(=O)(O)OP(=O)([O-])OC[C@H]1O[C@@H](n2ccc(N)nc2=O)[C@H](O)[C@@H]1O [Citicoline]
- Cholesterol-free media + simvastatin (0.04 μM) [1, 14]: 0.6677
- Complete Media [1, 15]: 1.557
- Difference [1, 11]: 0.89
- Cholesterol-free [2, 19]: 0.7726
- Complete [2, 20]: 1.062
- Difference [2, 21]: 0.29

SMILES: O=C(O)CC(O)(CC(=O)O)C(=O)O [Citric acid]
- Cholesterol-free media + simvastatin (0.04 μM) [1, 22]: 1.227
- Complete Media [1, 23]: 1.209
- Difference [1, 24]: −0.02
- Difference [2, 6]: −0.17
- Cholesterol-free [2, 7]: 0.92
- Complete [2, 8]: 0.7466

SMILES: Nc1nc(Cl)nc2c1ncn2[C@H]1C[C@H](O)[C@@H](CO)O1 [Cladribine]
- Cholesterol-free media + simvastatin (0.04 μM) [1, 14]: 0.1545
- Complete Media [1, 15]: 0.02741
- Difference [1, 5]: −0.13
- Difference [2, 25]: 0.07
- Cholesterol-free [2, 19]: −0.008506
- Complete [2, 20]: 0.0649

SMILES: CC[C@H]1OC(=O)[C@H](C)[C@@H](O[C@H]2C[C@@](C)(OC)[C@@H](O)[C@H](C)O2)[C@H](C)[C@@H](O[C@@H]2O[C@H](C)C[C@H](N(C)C)[C@H]2O)[C@](C)(OC)C[C@@H](C)C(=O)[C@H](C)[C@@H](O)[C@]1(C)O [Clarithromycin]
- Cholesterol-free media + simvastatin (0.04 μM) [1, 14]: 1.214
- Complete Media [1, 15]: 1.064
- Difference [1, 5]: −0.15
- Difference [2, 16]: −0.74
- Cholesterol-free [2, 17]: 1.607
- Complete [2, 18]: 0.8616

SMILES: O=C(O)[C@H]1/C(=C/CO)O[C@@H]2CC(=O)N21 [Clavulanate (lithium)]
- Cholesterol-free media + simvastatin (0.04 μM) [1, 3]: 1.974
- Complete Media [1, 4]: 1.387
- Difference [1, 5]: −0.59
- Difference [2, 25]: 0.07
- Cholesterol-free [2, 19]: 1.545
- Complete [2, 20]: 1.617

SMILES: Clc1ccc(Cn2c(CN3CCCC3)nc3ccccc32)cc1 [Clemizole (hydrochloride)]
- Cholesterol-free media + simvastatin (0.04 μM) [1, 9]: 0.9553
- Complete Media [1, 10]: 1.07
- Difference [1, 11]: 0.11
- Difference [2, 6]: −0.11
- Cholesterol-free [2, 7]: 1.125
- Complete [2, 8]: 1.013

SMILES: CCCC(=O)OCOC(=O)C1=C(C)NC(C)=C(C(=O)OC)C1c1cccc(Cl)c1Cl (stereo not drawn) [Clevidipine]
- Cholesterol-free media + simvastatin (0.04 μM) [1, 9]: 0.8061
- Complete Media [1, 10]: 0.9036
- Difference [1, 11]: 0.10
- Cholesterol-free [2, 12]: 1.292
- Complete ([2]; NCI-H292 cells, complete media): 0.9289
- Difference [2, 13]: −0.36

Source: patent publication US20250144067A1, “PERSONALIZED STARVATION THERAPY FOR CANCER” (Faeth Therapeutics, Inc., priority 2021, published 2025)
